The values that follow come from patent US12391680B2, “Compounds and compositions for the treatment of cystic fibrosis” (FONDAZIONE ISTITUTO ITALIANO DI TECNOLOGIA, priority 2019, dated 2025).

Chain of mutant CFTR (P13569 with tags, fused parts or gaps DEL508-508): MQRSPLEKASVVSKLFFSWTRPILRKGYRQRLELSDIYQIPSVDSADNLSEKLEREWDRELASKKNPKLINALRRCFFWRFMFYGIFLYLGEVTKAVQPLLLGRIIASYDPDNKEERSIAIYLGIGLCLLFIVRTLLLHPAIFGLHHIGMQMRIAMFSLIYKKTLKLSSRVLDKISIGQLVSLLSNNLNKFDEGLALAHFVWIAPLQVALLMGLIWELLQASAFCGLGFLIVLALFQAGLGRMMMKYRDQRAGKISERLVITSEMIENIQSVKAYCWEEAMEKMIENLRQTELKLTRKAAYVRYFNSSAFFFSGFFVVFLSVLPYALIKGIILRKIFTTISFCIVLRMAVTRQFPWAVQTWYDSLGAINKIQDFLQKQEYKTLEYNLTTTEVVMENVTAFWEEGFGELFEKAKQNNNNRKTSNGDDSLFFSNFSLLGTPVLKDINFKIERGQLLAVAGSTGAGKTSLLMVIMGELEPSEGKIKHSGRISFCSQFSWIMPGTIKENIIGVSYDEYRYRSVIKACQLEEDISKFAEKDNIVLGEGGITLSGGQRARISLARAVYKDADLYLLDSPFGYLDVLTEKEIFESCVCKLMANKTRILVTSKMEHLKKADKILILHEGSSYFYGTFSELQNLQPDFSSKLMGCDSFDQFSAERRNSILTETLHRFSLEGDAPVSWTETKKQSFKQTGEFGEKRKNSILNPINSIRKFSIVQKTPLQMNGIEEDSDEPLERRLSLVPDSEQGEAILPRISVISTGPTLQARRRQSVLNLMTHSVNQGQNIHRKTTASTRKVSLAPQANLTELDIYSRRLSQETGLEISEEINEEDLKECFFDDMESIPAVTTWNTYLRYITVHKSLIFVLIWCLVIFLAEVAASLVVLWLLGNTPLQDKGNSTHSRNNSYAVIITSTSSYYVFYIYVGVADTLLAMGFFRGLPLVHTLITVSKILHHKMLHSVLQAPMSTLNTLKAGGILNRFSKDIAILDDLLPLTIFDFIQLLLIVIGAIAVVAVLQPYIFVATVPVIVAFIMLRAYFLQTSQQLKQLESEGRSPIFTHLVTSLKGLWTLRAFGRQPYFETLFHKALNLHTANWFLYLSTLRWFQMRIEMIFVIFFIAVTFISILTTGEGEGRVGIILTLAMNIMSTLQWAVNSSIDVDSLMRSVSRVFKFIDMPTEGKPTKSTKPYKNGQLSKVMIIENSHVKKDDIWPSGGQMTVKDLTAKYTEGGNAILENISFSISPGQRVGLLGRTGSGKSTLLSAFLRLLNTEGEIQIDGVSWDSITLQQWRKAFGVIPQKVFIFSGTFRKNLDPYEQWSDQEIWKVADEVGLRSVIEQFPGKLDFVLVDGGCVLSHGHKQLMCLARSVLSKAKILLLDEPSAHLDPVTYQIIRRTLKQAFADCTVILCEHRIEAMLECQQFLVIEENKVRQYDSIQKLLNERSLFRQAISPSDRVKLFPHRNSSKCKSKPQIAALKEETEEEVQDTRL

The assay deals with mutant CFTR (Homo sapiens, UniProt P13569). Description: Fluorescence assay for CFTR activity (halide-sensitive YFP, HS-YFP). Type of assay: cell-based. To be noted: CFBE41o- and FRT cells with stable expression of mutant CFTR. On the procedure:
Mutant CFTR activity was determined with the functional assay based on the halide-sensitive yellow fluorescent protein, HS—YFP (Galietta et al., FEBS Lett 499:220-224, 2001). CFBE41o- and FRT cells with stable expression of mutant CFTR and HS—YFP were plated on clear-bottom 96-well black microplates (Code 3603, Corning Life Sciences) at a density of 50,000 cells/well and kept at 37° C. in 5% CO2 for 24 hours.
For the corrector assay, cells were treated for further 24 hours with test compounds, vehicle (DMSO), or the positive control VX-809. After treatment, the culture medium was removed and cells in each well were stimulated for 30 min at 37° C. with 60 μL PBS (containing 137 mM NaCl, 2.7 mM KCl, 8.1 mM Na2HPO4, 1.5 mM KH2PO4, 1 mM CaCl2, and 0.5 mM MgCl2) plus forskolin (20 μM) and genistein (50 μM).
For determination of potentiator activity on F508del-CFTR, cells were incubated for 24 hours at 27° C. to allow trafficking of the mutant protein to plasma membrane. Cells were then stimulated with for 30 min with PBS containing forskolin (20 μM) plus the compound to be tested at the desired concentration. For determination of potentiator activity on G551D-CFTR or G1349D-CFTR, cells were directly stimulated with forskolin plus test compound without previous incubation at low temperature. At the time of assay, microplates carrying CFBE41o- or FRT cells were transferred to microplate readers (BMG Labtech) equipped with high-quality excitation (HQ500/20×: 500±10 nm) and emission (HQ535/30M: 535±15 nm) filters for YFP (Chroma Technology). The assay consisted of a continuous 14 s fluorescence reading with 2 s before and 12 s after injection of an iodide-containing solution (165 μL of a modified PBS containing I^− instead of Cl^−; final I^− concentration in the well: 100 mM). Data were normalized to the initial background-subtracted fluorescence. Enhanced CFTR activity, induced by correctors and/or potentiators, results in accelerated I^− influx that in turn causes faster HS—YFP quenching (Pedemonte et al., Mol Pharmacol 68:1736-1746, 2005; Pedemonte et al., J Clin Invest 115:2564-2571, […]). To determine fluorescence quenching rate associated with I^− influx, the final 10 s of data for each well were fitted with an exponential function to extrapolate initial slope (dF/dt).
EC50 obtained are illustrated in Table 1 wherein+: EC50>2 μM; ++: 1.0 μM <EC50<2 μM; +++: EC50<1 μM.
As a reminder, the EC50 is the concentration that produces a half-maximal response. As to `Cc1cc(S(=O)(=O)N2CCOC(c3c(C(=O)NCCO)sc4ccccc34)C2)ccc1F` (racemic) [compound 029, rac-3-[4-(4-fluoro-3-methyl-phenyl)sulfonylmorpholin-2-yl]-N-(2-hydroxyethyl)benzothiophene-2-carboxamide], the EC50 is > 2 µM. The same measure for `NC(=O)c1sc2ccccc2c1C1CN(S(=O)(=O)c2ccc(F)c(C(F)(F)F)c2)CCO1` (racemic) [compound 038, rac-3-[4-[4-fluoro-3-(trifluoromethyl)phenyl]sulfonylmorpholin-2-yl]benzothiophene-2-carboxamide]: > 2 µM; for `NC(=O)c1sc2ccccc2c1C1CN(S(=O)(=O)c2ccccc2)CCO1` (racemic) [compound 003, rac-3-[4-(benzenesulfonyl)morpholin-2-yl]benzothiophene-2-carboxamide]: > 2 µM; for `Cc1ccc(S(=O)(=O)N2CCO[C@@H](c3c(C(N)=O)sc4ccccc34)C2)cc1F` (single isomer, unassigned) [compound 072]: > 2 µM. To `NC(=O)c1sc2ccccc2c1C1CN(S(=O)(=O)c2ccc(O)cc2)CCO1` (racemic) [compound 068, rac-3-[4-(4-hydroxyphenyl)sulfonylmorpholin-2-yl]benzothiophene-2-carboxamide] belongs > 2 µM; to `CN1CCOc2cc(S(=O)(=O)N3CCOC(c4c(C(N)=O)sc5ccccc45)C3)ccc21` (racemic) [compound 057, rac-3-[4-[(4-methyl-2,3-dihydro-1,4-benzoxazin-7-yl)sulfonyl]morpholin-2-yl]benzothiophene-2-carboxamide], < 1 µM. To `NC(=O)c1sc2ccccc2c1[C@H]1CN(S(=O)(=O)c2ccc(C(F)(F)F)c(F)c2)CCO1` (single isomer, unassigned) [compound 055] belongs > 2 µM; to `CN(C)C(=O)c1sc2ccccc2c1C1CN(S(=O)(=O)C2CCCC2)CCO1` (stereo not drawn) [compound 078, 3-[4-(cyclopentylsulfonyl)-2-morpholinyl]-N,N-dimethyl-1-benzothiophene-2-carboxamide], > 2 µM; to `NC(=O)c1sc2ccccc2c1C1CN(S(=O)(=O)c2ccc3c(c2)OCO3)CCO1` (racemic) [compound 017, rac-3-[4-(1,3-benzodioxol-5-ylsulfonyl)morpholin-2-yl]benzothiophene-2-carboxamide], 1 to 2 µM. For the compound `CNC(=O)c1sc2ccccc2c1C1CN(S(=O)(=O)c2c(C)noc2C)CCO1` (stereo not drawn) [compound 075, 3-[4-(3,5-dimethyl-isoxazole-4-sulfonyl)-morpholin-2-yl]-benzo[b]thiophene-2-carboxylic acid methylamide], the EC50 was > 2 µM. To `NC(=O)c1sc2ccccc2c1C1CN(S(=O)(=O)c2ccc(Cl)cc2)CCO1` (racemic) [compound 040, rac-3-[4-(4-chlorophenyl)sulfonylmorpholin-2-yl]benzothiophene-2-carboxamide] belongs 1 to 2 µM. With `COc1cc(S(=O)(=O)N2CCOC(c3c(C(N)=O)sc4ccccc34)C2)ccc1C(F)(F)F` (racemic) [compound 045, rac-3-[4-[3-methoxy-4-(trifluoromethyl)phenyl]sulfonylmorpholin-2-yl]benzothiophene-2-carboxamide], the EC50 was in the range of 1 to 2 µM. In the case of `COc1ccc(S(=O)(=O)N2CCOC(c3c(C(N)=O)sc4ccccc34)C2)cc1C(F)(F)F` (racemic) [compound 046, rac-3-[4-[4-methoxy-3-(trifluoromethyl)phenyl]sulfonylmorpholin-2-yl]benzothiophene-2-carboxamide], the EC50 was < 1 µM. Regarding `COC(=O)c1ccc(S(=O)(=O)N2CCOC(c3c(C(N)=O)sc4ccccc34)C2)cc1` (racemic) [compound 063, rac-methyl 4-[2-(2-carbamoylbenzothiophen-3-yl)morpholin-4-yl]sulfonylbenzoate], the EC50 is > 2 µM. On to `CCNC(=O)c1sc2ccccc2c1C1CN(S(=O)(=O)c2ccc(F)c(C)c2)CCO1` (racemic) [compound 030, rac-N-ethyl-3-[4-(4-fluoro-3-methyl-phenyl)sulfonylmorpholin-2-yl]benzothiophene-2-carboxamide], for which the half-maximal effective concentration (EC50) was > 2 µM.

Regarding `NC(=O)c1sc2ccccc2c1C1CN(S(=O)(=O)c2ccc(C(F)(F)F)c(F)c2)CCO1` (single isomer, unassigned) [compound 056], the EC50 is < 1 µM.

For `CNC(=O)c1sc2ccccc2c1C1CN(S(=O)(=O)c2ccc(F)c(C)c2)CCO1` (racemic) [compound 028, rac-3-[4-(4-fluoro-3-methyl-phenyl)sulfonylmorpholin-2-yl]-N-methyl-benzothiophene-2-carboxamide], the EC50 is > 2 µM. To `Cc1noc(C)c1S(=O)(=O)N1CCOC(c2c(C(N)=O)sc3ccccc23)C1` (racemic) [compound 008, rac-3-[4-(3,5-dimethylisoxazol-4-yl)sulfonylmorpholin-2-yl]benzothiophene-2-carboxamide] belongs > 2 µM. For `COc1cccc(S(=O)(=O)N2CCOC(c3c(C(N)=O)sc4ccccc34)C2)c1` (racemic) [compound 048, rac-3-[4-(3-methoxyphenyl)sulfonylmorpholin-2-yl]benzothiophene-2-carboxamide], the EC50 was > 2 µM. In the case of `COc1ccc(S(=O)(=O)N2CCOC(c3c(C(N)=O)sc4ccccc34)C2)cc1F` (racemic) [compound 053, rac-3-[4-(3-fluoro-4-methoxy-phenyl)sulfonylmorpholin-2-yl]benzothiophene-2-carboxamide], the EC50 is > 2 µM. To `CNC(=O)c1sc2ccccc2c1C1CN(S(=O)(=O)C2CCCC2)CCO1` (stereo not drawn) [compound 081, 3-(4-cyclopentanesulfonyl-morpholin-2-yl)-benzo[b]thiophene-2-carboxylic acid methylamide] belongs > 2 µM; to `N#Cc1cccc(S(=O)(=O)N2CCOC(c3c(C(N)=O)sc4ccccc34)C2)c1` (racemic) [compound 062, rac-3-[4-(3-cyanophenyl)sulfonylmorpholin-2-yl]benzothiophene-2-carboxamide], > 2 µM; to `NC(=O)c1sc2ccccc2c1C1CN(S(=O)(=O)C2CCOCC2)CCO1` (racemic) [compound 058, rac-3-[4-tetrahydropyran-4-ylsulfonylmorpholin-2-yl]benzothiophene-2-carboxamide], > 2 µM. As for `Cc1ccc(S(=O)(=O)N2CCOC(c3c(C(N)=O)sc4ccccc34)C2)cc1F` (racemic) [compound 026, rac-3-[4-(3-fluoro-4-methyl-phenyl)sulfonylmorpholin-2-yl]benzothiophene-2-carboxamide], the EC50 is < 1 µM. To `COc1ccc(S(=O)(=O)N2CCOC(c3c(C(N)=O)sc4ccccc34)C2)cc1C` (racemic) [compound 023, rac-3-[4-(4-methoxy-3-methyl-phenyl)sulfonylmorpholin-2-yl]benzothiophene-2-carboxamide] belongs > 2 µM.

Regarding `NC(=O)c1sc2ccccc2c1C1CN(S(=O)(=O)c2ccc(N3CCCC3=O)cc2)CCO1` (racemic) [compound 015, rac-3-[4-[4-(2-oxopyrrolidin-1-yl)phenyl]sulfonylmorpholin-2-yl]benzothiophene-2-carboxamide], the EC50 is > 2 µM. The same measure for `Cc1ccc(S(=O)(=O)N2CCO[C@H](c3c(C(N)=O)sc4ccccc34)C2)cc1F` (single isomer, unassigned) [compound 073]: < 1 µM.
